Among the data in patent US20220409619A1, “INHIBITORS OF HUMAN IMMUNODEFICIENCY VIRUS REPLICATION” (VIIV HEALTHCARE UK (No. 5) LIMITED, priority 2019, published 2022) are EC50 and CC50 values, retold here.

Data set [1] relates to recombinant NL4-3 virus (nef section replaced with Renilla luciferase gene) in MT-2 cells. In words: HIV cell culture assay (antiviral activity, luciferase readout). Particulars: Renilla, NL43. In kind it is cell-based. The method, then:
HIV cell culture assay—MT-2 cells, 293T cells and the proviral DNA clone of NL4-3 virus were obtained from the NIH AIDS Research and Reference Reagent Program. MT-2 cells were propagated in RPMI 1640 media supplemented with 10% heat inactivated fetal bovine serum (FBS), 100 μg/ml penicillin G and up to 100 units/mL streptomycin. The 293T cells were propagated in DMEM media supplemented with 10% heat inactivated FBS, 100 μg/mL penicillin G and 100 μg/mL streptomycin. A recombinant NL4-3 proviral clone, in which a section of the nef gene was replaced with the Renilla luciferase gene, was used to make the reference virus used in these studies. The recombinant virus was prepared through transfection of the recombinant NL4-3 proviral clone into 293T cells using Transit-293 Transfection Reagent from Mirus Bio LLC (Madison, Wis.). Supernatent was harvested after 2-3 days and the amount of virus present was titered in MT-2 cells using luciferase enzyme activity as a marker by measuring luciferase enzyme activity. Luciferase was quantitated using the EnduRen Live Cell Substrate from Promega (Madison, Wis.). Antiviral activities of compounds toward the recombinant virus were quantified by measuring luciferase activity in MT-2 cells infected for 4-5 days with the recombinant virus in the presence of serial dilutions of the compound.
The 50% effective concentration (EC50) was calculated by using the exponential form of the median effect equation where (Fa)=1/[1+(ED50/drug conc.)^m] (Johnson V A, Byington R T. Infectivity Assay. In Techniques in HIV Research. ed. Aldovini A, Walker B D. 71-76. New York: Stockton Press. 1990). Curve fitting and analysis were performed with ActivityBase XE Runner software version 9.1.0.4 using model 203 (ID Business Solutions, LTD, Guildford, UK).

Data set [2] can be described thus: Compound cytotoxicity, XTT-based colorimetric assay. The data set is classed as cell-based. As to conditions: human; uninfected MT2 cells, day 4, XTT-based colorimetric assay. The method, then: Compound cytotoxicity and the corresponding CC50 values were determined using the same protocol as described in the antiviral assay except that uninfected cells were used. Cytotoxicity was assessed on day 4 in uninfected MT2 cells by using a XTT (2,3-bis[2-Methoxy-4-nitro-5-sulfophenyl]-2H-tetrazolium-5-carboxyanilide inner salt)-based colorimetric assay (Sigma-Aldrich, St Louis, Mo.).
(Formazan colour is commonly taken as a measure of viable cells.)

Broadly, the EC50 is the concentration giving half of the maximal effect. Broadly, the CC50 is the concentration giving 50% cytotoxicity.

For the molecule `Cn1nc(NS(C)(=O)=O)c2c(Cl)ccc(-n3c([C@H](Cc4cc(F)cc(F)c4)NC(=O)Cn4nc(C(F)F)c5c4C(F)(F)[C@@H]4C[C@H]54)nc(-c4cnccn4)cc3=O)c21` (atropisomer, axis not shown; (P)) [Example 20, N-((S)-1-((1P)-1-(4-chloro-1-methyl-3-(methylsulfonamido)-1H-indazol-7-yl)-6-oxo-4-(pyrazin-2-yl)-1,6-dihydropyrimidin-2-yl)-2-(3,5-difluorophenyl)ethyl)-2-((3bS,4aR)-3-(difluoromethyl)-5,5-difluoro-3b,4,4a,5-tetrahydro-1H-cyclopropa[3,4]cyclopenta[1,2-c]pyrazol-1-yl)acetamide], in data set [1], the EC50 came to 160 pM. Moreover, the CC50 at 4 days in data set [2] was more than 100000 pM.

As for `Cn1nc(NS(C)(=O)=O)c2c(Cl)ccc(-n3c([C@H](Cc4cc(F)cc(F)c4)NC(=O)Cn4nc(C(F)F)c5c4C(F)(F)[C@@H]4C[C@H]54)nc(-c4cnc(C(C)(F)F)s4)cc3=O)c21` (atropisomer, axis not shown; (P)) [Example 15, N-((S)-1-((1P)-1-(4-chloro-1-methyl-3-(methylsulfonamido)-1H-indazol-7-yl)-4-(2-(1,1-difluoroethyl)thiazol-5-yl)-6-oxo-1,6-dihydropyrimidin-2-yl)-2-(3,5-difluorophenyl)ethyl)-2-((3bS,4aR)-3-(difluoromethyl)-5,5-difluoro-3b,4,4a,5-tetrahydro-1H-cyclopropa[3,4]cyclopenta[1,2-c]pyrazol-1-yl)acetamide], the EC50 in data set [1] is 590 pM. This molecule also gave a CC50 at 4 days in data set [2] of more than 100000 pM.

With `O=C(Cn1nc(C(F)F)c2c1C(F)(F)[C@@H]1C[C@H]21)N[C@@H](Cc1cc(F)cc(F)c1)c1nc(-c2cccc(C(F)(F)F)n2)cc(=O)n1-c1ccc(Cl)c2c(NS(=O)(=O)C3CC3)nn(CC(F)F)c12` (atropisomer, axis not shown; (P)) [Example 44, N-((S)-1-((1P)-1-(4-chloro-3-(cyclopropanesulfonamido)-1-(2,2-difluoroethyl)-1H-indazol-7-yl)-6-oxo-4-(6-(trifluoromethyl)pyridin-2-yl)-1,6-dihydropyrimidin-2-yl)-2-(3,5-difluorophenyl)ethyl)-2-((3bS,4aR)-3-(difluoromethyl)-5,5-difluoro-3b,4,4a,5-tetrahydro-1H-cyclopropa[3,4]cyclopenta[1,2-c]pyrazol-1-yl)acetamide], in data set [1], the EC50 was 240 pM. The molecule also showed a CC50 at 4 days in data set [2] of more than 100000 pM.

For `Cn1nc(NS(C)(=O)=O)c2c(Cl)ccc(-n3c([C@H](Cc4cc(F)cc(F)c4)NC(=O)Cn4nc(C(F)F)c5c4C(F)(F)[C@@H]4C[C@H]54)nc(-c4csc(S(C)(=O)=O)n4)cc3=O)c21` (atropisomer, axis not shown; (P)) [Example 17, N-((S)-1-((1P)-1-(4-chloro-1-methyl-3-(methylsulfonamido)-1H-indazol-7-yl)-4-(2-(methylsulfonyl)thiazol-4-yl)-6-oxo-1,6-dihydropyrimidin-2-yl)-2-(3,5-difluorophenyl)ethyl)-2-((3bS,4aR)-3-(difluoromethyl)-5,5-difluoro-3b,4,4a,5-tetrahydro-1H-cyclopropa[3,4]cyclopenta[1,2-c]pyrazol-1-yl)acetamide], the EC50 in data set [1] was determined as 810 pM. Besides, the CC50 at 4 days in data set [2] is more than 100000 pM.

With `COc1cncc(-c2cc(=O)n(-c3ccc(Cl)c4c(NS(=O)(=O)C5CC5)nn(CC(F)F)c34)c([C@H](Cc3cc(F)cc(F)c3)NC(=O)Cn3nc(C(F)F)c4c3C(F)(F)[C@@H]3C[C@H]43)n2)n1` (atropisomer, axis not shown; (P)) [Example 40, N-((S)-1-((1P)-1-(4-chloro-3-(cyclopropanesulfonamido)-1-(2,2-difluoroethyl)-1H-indazol-7-yl)-4-(6-methoxypyrazin-2-yl)-6-oxo-1,6-dihydropyrimidin-2-yl)-2-(3,5-difluorophenyl)ethyl)-2-((3bS,4aR)-3-(difluoromethyl)-5,5-difluoro-3b,4,4a,5-tetrahydro-1H-cyclopropa[3,4]cyclopenta[1,2-c]pyrazol-1-yl)acetamide], the EC50 in data set [1] was determined as 600 pM. Moreover, the half-maximal cytotoxic concentration (CC50) at 4 days in data set [2] is more than 100000 pM.

`COc1cnc(-c2cc(=O)n(-c3ccc(Cl)c4c(NS(C)(=O)=O)nn(C)c34)c([C@H](Cc3cc(F)cc(F)c3)NC(=O)Cn3nc(C(F)F)c4c3C(F)(F)[C@@H]3C[C@H]43)n2)cn1` (atropisomer, axis not shown; (P)) [Example 13, N-((S)-1-((1P)-1-(4-chloro-1-methyl-3-(methylsulfonamido)-1H-indazol-7-yl)-4-(5-methoxypyrazin-2-yl)-6-oxo-1,6-dihydropyrimidin-2-yl)-2-(3,5-difluorophenyl)ethyl)-2-((3bS,4aR)-3-(difluoromethyl)-5,5-difluoro-3b,4,4a,5-tetrahydro-1H-cyclopropa[3,4]cyclopenta[1,2-c]pyrazol-1-yl)acetamide]: the EC50 in data set [1] is 200 pM. In data set [2], this molecule showed a CC50 at 4 days of more than 100000 pM.

On to `CCc1cnc(-c2cc(=O)n(-c3ccc(Cl)c4c(NS(=O)(=O)C5CC5)nn(CC(F)F)c34)c([C@H](Cc3cc(F)cc(F)c3)NC(=O)Cn3nc(C(F)F)c4c3C(F)(F)[C@@H]3C[C@H]43)n2)nc1` (atropisomer, axis not shown; (aR)) [Example 39, N-((S)-1-((1′P)-1′-(4-chloro-3-(cyclopropanesulfonamido)-1-(2,2-difluoroethyl)-1H-indazol-7-yl)-5-ethyl-6′-oxo-1′,6′-dihydro-[2,4′-bipyrimidin]-2′-yl)-2-(3,5-difluorophenyl)ethyl)-2-((3bS,4aR)-3-(difluoromethyl)-5,5-difluoro-3b,4,4a,5-tetrahydro-1H-cyclopropa[3,4]cyclopenta[1,2-c]pyrazol-1-yl)acetamide], for which the EC50 in data set [1] was 59 pM. Moreover, the CC50 at 4 days in data set [2] is more than 100000 pM.

With `Cn1nc(NS(C)(=O)=O)c2c(Cl)ccc(-n3c([C@H](Cc4cc(F)cc(F)c4)NC(=O)Cn4nc(C(F)F)c5c4C(F)(F)[C@@H]4C[C@H]54)nc(-c4ccccc4)cc3=O)c21` (atropisomer, axis not shown; (aR)) [Example 1, N-((S)-1-(1-(4-chloro-1-methyl-3-(methylsulfonamido)-1H-indazol-7-yl)-6-oxo-4-phenyl-1,6-dihydropyrimidin-2-yl)-2-(3,5-difluorophenyl)ethyl)-2-((3bS,4aR)-3-(difluoromethyl)-5,5-difluoro-3b,4,4a,5-tetrahydro-1H-cyclopropa[3,4]cyclopenta[1,2-c]pyrazol-1-yl)acetamide], in data set [1], the half-maximal effective concentration (EC50) amounted to 720 pM. The CC50 at 4 days in data set [2] was more than 500000 pM.

Consider `CC(C)(C#Cc1cc(=O)n(-c2ccc(Cl)c3c(NS(=O)(=O)C4CC4)nn(CC(F)F)c23)c([C@H](Cc2cc(F)cc(F)c2)NC(=O)Cn2nc(C(F)(F)F)c3c2C(F)(F)[C@@H]2C[C@H]32)n1)S(C)(=O)=O` (atropisomer, axis not shown; (P)) [Example 36, N-((S)-1-((1P)-1-(4-chloro-3-(cyclopropanesulfonamido)-1-(2,2-difluoroethyl)-1H-indazol-7-yl)-4-(3-methyl-3-(methylsulfonyl)but-1-yn-1-yl)-6-oxo-1,6-dihydropyrimidin-2-yl)-2-(3,5-difluorophenyl)ethyl)-2-((3bS,4aR)-5,5-difluoro-3-(trifluoromethyl)-3b,4,4a,5-tetrahydro-1H-cyclopropa[3,4]cyclopenta[1,2-c]pyrazol-1-yl)acetamide], for which the EC50 in data set [1] was determined as 160 pM. This molecule also had a CC50 at 4 days in data set [2] of more than 100000 pM.

`Cn1nc(NS(C)(=O)=O)c2c(Cl)ccc(-n3c([C@H](Cc4cc(F)cc(F)c4)NC(=O)Cn4nc(C(F)F)c5c4C(F)(F)[C@@H]4C[C@H]54)nc(-c4cnc(C(C)(C)O)s4)cc3=O)c21` (atropisomer, axis not shown; (P)) [Example 25, N-((S)-1-((1P)-1-(4-chloro-1-methyl-3-(methylsulfonamido)-1H-indazol-7-yl)-4-(2-(2-hydroxypropan-2-yl)thiazol-5-yl)-6-oxo-1,6-dihydropyrimidin-2-yl)-2-(3,5-difluorophenyl)ethyl)-2-((3bS,4aR)-3-(difluoromethyl)-5,5-difluoro-3b,4,4a,5-tetrahydro-1H-cyclopropa[3,4]cyclopenta[1,2-c]pyrazol-1-yl)acetamide]: in data set [1], the EC50 worked out at 1500 pM. The CC50 at 4 days in data set [2] was more than 100000 pM.
